Positions count from the first letter of the chain named. Numbers in names are those of the source. Where no end group is shown, it is not given here. [ ]: non-standard residue; d: D form. Trp(1-Me) = Cn1cc(C[C@H](N)C(=O)O)c2ccccc21
B1: aureocin A53 (L-AucA, wild type) (natural protein)
chain: MSWLNFLKYIAKYGKKAVSAAWKYKGKVLEWLNVGPTLEWVWQKLKKIAGL
notes: also called AucA-wt; wild-type AucA; source: synthetic: native chemical ligation of two peptide segments and desulfurization, purified by semi-preparative HPLC
B2: AucA-W22L (natural protein)
chain: B1 chain with W22L
notes: also called W22L variant; source: synthetic: automated SPPS on rink amide protide resin

How the values were obtained:
[1] = system: E. faecium CW130826; assay: microbe, parasite or virus in culture; conditions: broth microdilution per CSLI guidelines, Brain Heart Infusion broth, 5 × 10^5 CFU/mL, 37 °C, 20 h, range 64–0.125 µg/mL, triplicate
Method: (§1) Minimum Inhibitory Concentrations (MIC) were determined for each of the bacteriocins and controls using a broth microdilution method, as per CSLI guidelines for microbial susceptibility testing. The peptides were dissolved in sterile deionized water to prepare the working stocks, with concentrations determined by UV absorbance at 280 nm[56]. Overnight cultures from the strains of interest were incubated with shaking overnight at 37 °C. Cation-adjusted Mueller Hinton Broth 2 (MHB 2) was used for the S. aureus, and S. epidermidis strains and Brain Heart Infusion (BHI) broth was utilized for the E. faecalis and E. faecium strains. The cultures were prepared and diluted to the turbidity of a 0.5 McFarland standard using MHB or BHI fresh media. Increasing concentrations of the leaderless bacteriocins were added to a 96-well polypropylene plate. The range tested for each bacteriocin was 64–0.125 µg/mL. The bacterial culture was further diluted and mixed in a 1:1 ratio with the bacteriocin solution to yield a final concentration in the wells of 5 × 10^5 CFU/mL. […] A 1:1000 dilution of the growth control was prepared in the respective media and plated onto agar (100 μL) to ensure the correct inoculum concentration (5 × 10^5 CFU/mL indicated by ≈ 50 bacterial colonies). The 96-well and agar plates were incubated at 37 °C, and growth was assessed by the formation of a pellet observable with the naked eye after 20 h. […] Each assay was performed in triplicate.
(§2) Materials and instruments […]
(§3) Minimum Inhibitory Concentration (MIC) assays were conducted in 96-Well Clear polypropylene corner notch microplates (Corning, #11313595). For the assay media, cation adjusted Mueller Hinton Broth 2 (Sigma Aldrich, #90922) was used for the S. aureus, and S. epidermidis strains and Brain Heart Infusion broth (BD, #221812) was used for the E. faecalis and E. faecium […]
(§4) used, as well as melittin prepared by automated SPPS. Experimental bacterial strains used were procured from the American Type Culture collection (S. aureus 29213) and the Canadian Antimicrobial Resistance Alliance

[2] = system: E. faecium CW131126; assay: microbe, parasite or virus in culture; conditions: broth microdilution per CSLI guidelines, Brain Heart Infusion broth, 5 × 10^5 CFU/mL, 37 °C, 20 h, range 64–0.125 µg/mL, triplicate
Method: as §1, §2, §3, §4

[3] = system: S. epidermidis CW130500; assay: microbe, parasite or virus in culture; conditions: broth microdilution per CSLI guidelines, cation-adjusted Mueller Hinton Broth 2, 5 × 10^5 CFU/mL, 37 °C, 20 h, range 64–0.125 µg/mL, triplicate
Method: as §1, §2, §3, §4

[4] = system: E. faecalis CW133346; assay: microbe, parasite or virus in culture; conditions: broth microdilution per CSLI guidelines, Brain Heart Infusion broth, 5 × 10^5 CFU/mL, 37 °C, 20 h, range 64–0.125 µg/mL, triplicate
Method: as §1, §2, §3, §4

[5] = system: S. aureus CW115852; assay: microbe, parasite or virus in culture; conditions: broth microdilution per CSLI guidelines, cation-adjusted Mueller Hinton Broth 2, 5 × 10^5 CFU/mL, 37 °C, 20 h, range 64–0.125 µg/mL, average of three repeat assays
Method: (§5) Minimum inhibitory concentrations, determined by broth microdilution, are expressed as an average of three repeat assays. […] [a] MIC values expressed in μg/mL, [b] AC: American Type Culture Collection strain, [c] CW: CANWARD collection clinical isolate strain.33.
as §1, §2
(§6) Minimum Inhibitory Concentration (MIC)
(§7) assays were conducted in 96-Well Clear polypropylene corner notch microplates (Corning, #11313595). For the […]

[6] = system: S. aureus CW114125; assay: microbe, parasite or virus in culture; conditions: broth microdilution per CSLI guidelines, cation-adjusted Mueller Hinton Broth 2, 5 × 10^5 CFU/mL, 37 °C, 20 h, range 64–0.125 µg/mL, average of three repeat assays
Method: as §5, §1, §2, §6, §7

[7] = system: S. aureus AC29213; assay: microbe, parasite or virus in culture; conditions: broth microdilution per CSLI guidelines, cation-adjusted Mueller Hinton Broth 2, 5 × 10^5 CFU/mL, 37 °C, 20 h, range 64–0.125 µg/mL, average of three repeat assays
Method: as §5, §1, §2, §6, §7

[8] = system: E. faecalis CW133003; assay: microbe, parasite or virus in culture; conditions: broth microdilution per CSLI guidelines, Brain Heart Infusion broth, 5 × 10^5 CFU/mL, 37 °C, 20 h, range 64–0.125 µg/mL, average of three repeat assays
Method: as §5, §1, §2, §6, §7

[9] = system: S. aureus CW113379; assay: microbe, parasite or virus in culture; conditions: broth microdilution per CSLI guidelines, cation-adjusted Mueller Hinton Broth 2, 5 × 10^5 CFU/mL, 37 °C, 20 h, range 64–0.125 µg/mL, average of three repeat assays
Method: as §5, §1, §2, §6, §7

[10] = system: S. epidermidis CW131612; assay: microbe, parasite or virus in culture; conditions: broth microdilution per CSLI guidelines, cation-adjusted Mueller Hinton Broth 2, 5 × 10^5 CFU/mL, 37 °C, 20 h, range 64–0.125 µg/mL, average of three repeat assays
Method: as §5, §1, §2, §6, §7

[11] = target: the molecule itself; assay: SEC; analytical size exclusion chromatography in phosphate-buffered saline (pH 7.4), UV 210 nm

Molecule | Minimum inhibitory concentration E. faecium CW130826 [1] | Minimum inhibitory concentration E. faecium CW131126 [2] | Minimum inhibitory concentration S. epidermidis CW130500 [3] | Minimum inhibitory concentration E. faecalis CW133346 [4] | Minimum inhibitory concentration S. aureus CW115852 [5] | Minimum inhibitory concentration S. aureus CW114125 [6] | Minimum inhibitory concentration S. aureus AC29213 [7] | Minimum inhibitory concentration E. faecalis CW133003 [8] | Minimum inhibitory concentration S. aureus CW113379 [9] | Minimum inhibitory concentration S. epidermidis CW131612 [10] | stoichiometry N [11] | binding result [11]
MSWLNFLKYIAKYGKKAVSAAWKYKGKVLEWLNVGPTLEWVWQKLKKIAGL-NH2 [L-AucA, L-aureocin A53 (Met^1-Leu^51)] | 2 µg/mL | 2 µg/mL | 4 µg/mL | 4 µg/mL | 16 µg/mL | 4 µg/mL | 4 µg/mL | 4 µg/mL | 4 µg/mL | 4 µg/mL | – | –
MS[Trp(1-Me)]LNFLKYIAKYGKKAVSAAWKYKGKVLEWLNVGPTLEWVWQKLKKIAGL-NH2 [L-^1MeW3, L-aureocin A53 ^1MeTrp3 (Met^1-Leu^51)] | 2 µg/mL | 2 µg/mL | 4 µg/mL | 1 µg/mL | 8 µg/mL | 4 µg/mL | 4 µg/mL | 2 µg/mL | 4 µg/mL | 8 µg/mL | – | –
[dM][dA]G[dF][dL][dK][dV][dV][dQ][dL][dL][dA][dK][dY]G[dS][dK][dA][dV][dQ][dW][dA][dW][dA][dN][dK]G[dK][dI][dL][dD][dW][dL][dN][dA]G[dQ][dA][dI][dD][dW][dV][dV][dS][dK][dI][dK][dQ][dI][dL]G[dI][dK]-NH2 [D-LnqQ, D-lacticin Q (Met^1-Lys^53)] | 2 µg/mL | 2 µg/mL | 4 µg/mL | 2 µg/mL | 4 µg/mL | 8 µg/mL | 4 µg/mL | 2 µg/mL | 4 µg/mL | 4 µg/mL | – | –
[dM][dS][dW][dL][dN][dF][dL][dK][dY][dI][dA][dK][dY]G[dK][dK][dA][dV][dS][dA][dA][dW][dK][dY][dK]G[dK][dV][dL][dE][dW][dL][dN][dV]G[dP][dT][dL][dE][dW][dV][dW][dQ][dK][dL][dK][dK][dI][dA]G[dL]-NH2 [D-AucA, D-aureocin A53 (Met^1-Leu^51)] | 2 µg/mL | 4 µg/mL | 4 µg/mL | 4 µg/mL | 2 µg/mL | 4 µg/mL | 4 µg/mL | 4 µg/mL | 4 µg/mL | 4 µg/mL | – | –
B1 | – | – | – | – | – | – | – | – | – | – | 2 | –
B2 | – | – | – | – | – | – | – | – | – | – | – | binds
